Reference: article PMC11881906, “Development of xanthone derivatives as effective broad-spectrum antimicrobials: Disrupting cell wall and inhibiting DNA synthesis” (Science Advances, 2025)
≈ marks a conversion by molar mass, not a printed value.

How the values were obtained:
[1] = test system: tested strains (Gram-positive and Gram-negative bacteria); assay: MIC, summary over the tested strains; type: cell-based
Procedure: MIC was determined using the broth microdilution method in accordance with Clinical and Laboratory Standards Institute guidelines. All compounds were dissolved in dimethyl sulfoxide (DMSO; final DMSO concentration of less than 0.5%) and sterile double-distilled water and then diluted with Mueller-Hinton broth (MHB). Each compound’s stock solution was serially twofold diluted, resulting in concentrations ranging from 0.39 to 100 μg/ml, and thereafter added to sterile 96-well plates. All bacterial cell suspensions were adjusted in MHB to attain a starting inoculum of 1 × 10^6 cells/ml. A total of 100 μl volume of the bacterial suspension was then added to each well. Following a 24-hour incubation at 37°C, the optical density at 600 nm (OD600) was confirmed by measuring absorbance at 600 nm with a BioTek microplate reader. […] All measurements were repeated three times with duplicates each time.

[2] = test system: P. aeruginosa ATCC 9027; assay: MIC, broth microdilution; type: cell-based; settings: Pseudomonas aeruginosa, ATCC9027; 24-hour incubation, MHB
Outline: (§1)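 CLSI method; MHB; compound 0.39–100 μg/ml, 2-fold series; DMSO <0.5% final; inoculum 1 × 10^6 cells/ml; 24 h, 37°C; OD600 read; n = 3 runs in duplicate.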

[3] = test system: A. baumannii R2889; assay: MIC, broth microdilution; type: cell-based; settings: Acinetobacter baumannii, 24-hour incubation, MHB
Outline: as §1

[4] = test system: S. aureus ATCC 29213; assay: MIC, broth microdilution; type: cell-based; settings: Staphylococcus aureus, ATCC29213, 24 h, 24-hour incubation, MHB; read-out: MIC90 S. aureus ATCC 29213
Outline: as §1

[5] = test system: LTA; assay: Fluorescence-based binding assay; settings: compound 1× MIC; LTA 0 to 2.5 μg/ml
Procedure: (§2) Changes in the fluorescence emission spectrum or intensity were assessed for compound XT17 with and without the presence of targeted proteins. The fluorescent properties of compound XT17 (excitation wavelength of 350 nm and emission wavelength of 440 nm) were measured using a fluorescent plate reader upon binding to the targets. LTA-targeted protein concentrations ranged from 0.2 to 6.25 μg/ml, while LPS concentrations ranged from 0.78 to 25 μg/ml. The changes in the emission from a constant concentration of fluorescent compound were monitored after adding increasing concentrations of LTA or LPS. All measurements were repeated three times with duplicates each time.

[6] = test system: LPS; assay: Fluorescence-based binding assay; settings: compound 1× MIC; LPS 0 to 2.5 μg/ml
Procedure: as §2, with “LTA-targeted protein concentrations ranged from 0.2 to 6.25 μg/ml, while LPS concentrations ranged from 0.78 to 25 μg/ml.” left out

[7] = test system: P. aeruginosa ATCC 9027; assay: Murine corneal infection model; type: in vivo, mice; settings: topical, 2 days; XT17 5 mg/ml, gatifloxacin 3 mg/ml; vs 5% glucose control
Text: (§3) Female C57BL/6 mice (average weight, 20 g) were used for the in vivo efficacy experiments. Mice were housed in a specific pathogen–free facility on a 12-hour light-dark cycle, under the condition with ad libitum access to irradiation sterilized rodent diet and aseptic water. […]. These in vivo experiments were approved by the Experimental Animal Center of South China Agricultural University and conducted in accordance with the policies of the Ministry of Health of China.
(§4) The in vivo efficacy of compound XT17 was investigated in a murine corneal infection model. Before infection, the mice were immunosuppressed with three intraperitoneal injections of cyclophosphamide (100 mg/kg) over 5 days. After anesthesia with 2.5% avertin (500 mg/kg, ip), the left corneas of mice were scratched with 15 μl of S. aureus ATCC 29213 or P. aeruginosa ATCC 9027 (approximately 5 × 10^7 CFU/ml). Following 1 day of infection, the infected mice were randomly assigned into […] (n = 5) and subsequently administered with 0.5% compound XT17, 5% glucose solution, 5% vancomycin, or 0.3% gatifloxacin topically. S. aureus–caused murine corneal infections were treated four times a day for three consecutive days. Only 2 days of treatment were given for P. aeruginosa–caused murine corneal infections. On the first day, the drug was administered every 20 min for 1 hour and then three times at 2-hour intervals on the second day. The mice were given a 5% glucose solution as a negative control in the absence of any antimicrobial agent treatment. The infected corneas were collected after the mice were euthanized, and the number of viable bacteria was counted using MHA plates.

[8] = test system: S. aureus ATCC 29213; assay: Murine corneal infection model; type: in vivo, mice; settings: topical, four times daily for 3 days; XT17 5 mg/ml, vancomycin 50 mg/ml; vs 5% glucose control
Text: as §3, §4

[9] = test system: S. aureus ATCC 29213; assay: Time-kill kinetic assay; type: cell-based, Staphylococcus aureus; settings: 10× MIC, 24 hours
Procedure: The bacterial cultures were standardized to obtain an initial density that ranged from 10^5 to 10^6 cells/ml. The cultures were incubated in a shaking bath at 37°C. Viable counts were determined at 0-, 0.5-, 1.0-, 2.0-, 4.0-, 8.0-, and 24-hour intervals by spotting 10-μl aliquots of serially 10-fold diluted cultures onto Mueller-Hinton agar (MHA) plates. […] All measurements were repeated three times with duplicates each time.

SMILES: CC(C)=CCOc1cc(OCCCNC(=N)N)cc2oc3cc(OCCCNC(=N)N)ccc3c(=O)c12 [XT17]
- fold increase in antibacterial activity ([1]; guanidine XT17 versus primary amine XT07): 8- to 32 fold
- MIC ([1]; read-out: MICs against the tested strains): 0.39 to 3.12 µg/mL (≈ 0.764 to 6.12 µM)
- MIC90 [2]: 3.12 µg/mL (≈ 6.12 µM)
- MIC90 [3]: 50 µg/mL (≈ 97.9 µM)
- MIC90 [4]: 0.39 µg/mL (≈ 0.764 µM)
- fluorescence emission of compound upon binding to LTA [5]: decreased in a concentration-dependent manner
- fluorescence emission of compound upon binding to LPS [6]: decreased in a concentration-dependent manner
- log reduction in viable bacterial colonies in the infected corneas [7]: 2.88 log
- log reduction in viable bacterial colonies in the infected corneas [8]: 6.10 log
- log decrease in bacterial load [9]: 5.16 log
